From publication PMC10536928, “Discovery of New Pyrrolo[2,3-d]pyrimidine Derivatives as Potential Multi-Targeted Kinase Inhibitors and Apoptosis Inducers” (Pharmaceuticals, 2023)

Key:
[1] = tested on: breast cancer (MDA-MB-231); assay: MTT cytotoxicity assay; format: cell-based; settings: Homo sapiens, 24 h exposure, mean ± SD of triplicate
Method: (§1) The cytotoxic effects of compounds 5a–m were evaluated using a standard MTT method against four different cancer cell lines, namely mammary gland cancer (MCF-7), hepatocellular carcinoma (HepG2), breast cancer (MDA-MB-231), and epithelioid cervix carcinoma (HeLa). […] These findings highlight the potential of these compounds as candidates for further development as cytotoxic agents for cancer treatment.
(§2) The cytotoxicity of compounds 5a–m was assessed against various cancer cell lines and one normal cell line using the described methodology. In brief, the cells were cultured in 96-well plates with a density of 1.0 × 10^4 cells per well, supplemented with 10% fetal bovine serum (FBS), an antibiotic cocktail, and RPMI 11,640 medium. The cells were then incubated for 48 h with 5% CO2 and 100% relative humidity at 37 °C. […] Following treatment, the addition of 20 µL of MTT solution was added to each well and incubation was continued for another 4 h, after which dimethyl sulfoxide (100 µL) was used to dissolve the resulting insoluble formazan. The absorbance was measured at 570 nm using a BioTek EXL 800 plate reader (Agilent Technologies, CA, USA). By comparing the absorbance of treated samples to untreated samples, the relative cell viability percentage was calculated as (A570 of treated samples/A570 of untreated sample) × 100. The IC50 values were determined based on triplicate measurements.

[2] = tested on: hepatocellular carcinoma (HepG2); assay: MTT cytotoxicity assay; format: cell-based; settings: Homo sapiens, 24 h exposure, mean ± SD of triplicate
Method: as §1, §2

[3] = tested on: mammary gland cancer (MCF-7); assay: MTT cytotoxicity assay; format: cell-based; settings: Homo sapiens, MCF7, 24 h, 24 h exposure, mean ± SD of triplicate
Method: as §1, §2

[4] = tested on: epithelioid cervix carcinoma (HeLa); assay: MTT cytotoxicity assay; format: cell-based; settings: Homo sapiens, 24 h exposure, mean ± SD of triplicate
CDK2 = biological target: T1, CDK2 (Homo sapiens, UniProt P24941); assay: In vitro protein kinase inhibition assay (ELISA kit); format: biochemical; settings: triplicate
T1 construct: purchased
Method: (§3) In accordance with the documented procedures, fifteen derivatives of the synthesized compounds were evaluated for their inhibitory effects on EGFR, VEGFR-2, Her2, and CDK2 using specific human ELISA kits (Enzyme-Linked Immunosorbent Assay) designed for each respective kinase enzyme. Initially, various concentrations of the synthesized compounds were combined with specific antibodies for each enzyme in individual wells of a 96-well plate, followed by incubation at room temperature for 2.5 h. Subsequently, the plate was washed, and a biotin antibody (100 µL), prepared in-house, was added and allowed to incubate at ambient temperature for 1 h. After another washing step, a solution of streptavidin (100 µL) was introduced to each well and left for 45 min at room temperature. Following a third round of washing, a TMB Substrate (100 µL) reagent was applied to all wells and incubated for 30 min at room temperature. Finally, the reaction was terminated by adding 50 µL of a stop solution, and the absorbance was directly measured at 450 nm. A standard curve was constructed, illustrating the relationship between concentration (X-axis) and absorbance (Y-axis).

VEGFR2 = biological target: T2, VEGFR2 (Homo sapiens, UniProt P35968); assay: as above; format: biochemical; settings: triplicate
T2 construct: purchased
T2 sequence (P35968 20-1356): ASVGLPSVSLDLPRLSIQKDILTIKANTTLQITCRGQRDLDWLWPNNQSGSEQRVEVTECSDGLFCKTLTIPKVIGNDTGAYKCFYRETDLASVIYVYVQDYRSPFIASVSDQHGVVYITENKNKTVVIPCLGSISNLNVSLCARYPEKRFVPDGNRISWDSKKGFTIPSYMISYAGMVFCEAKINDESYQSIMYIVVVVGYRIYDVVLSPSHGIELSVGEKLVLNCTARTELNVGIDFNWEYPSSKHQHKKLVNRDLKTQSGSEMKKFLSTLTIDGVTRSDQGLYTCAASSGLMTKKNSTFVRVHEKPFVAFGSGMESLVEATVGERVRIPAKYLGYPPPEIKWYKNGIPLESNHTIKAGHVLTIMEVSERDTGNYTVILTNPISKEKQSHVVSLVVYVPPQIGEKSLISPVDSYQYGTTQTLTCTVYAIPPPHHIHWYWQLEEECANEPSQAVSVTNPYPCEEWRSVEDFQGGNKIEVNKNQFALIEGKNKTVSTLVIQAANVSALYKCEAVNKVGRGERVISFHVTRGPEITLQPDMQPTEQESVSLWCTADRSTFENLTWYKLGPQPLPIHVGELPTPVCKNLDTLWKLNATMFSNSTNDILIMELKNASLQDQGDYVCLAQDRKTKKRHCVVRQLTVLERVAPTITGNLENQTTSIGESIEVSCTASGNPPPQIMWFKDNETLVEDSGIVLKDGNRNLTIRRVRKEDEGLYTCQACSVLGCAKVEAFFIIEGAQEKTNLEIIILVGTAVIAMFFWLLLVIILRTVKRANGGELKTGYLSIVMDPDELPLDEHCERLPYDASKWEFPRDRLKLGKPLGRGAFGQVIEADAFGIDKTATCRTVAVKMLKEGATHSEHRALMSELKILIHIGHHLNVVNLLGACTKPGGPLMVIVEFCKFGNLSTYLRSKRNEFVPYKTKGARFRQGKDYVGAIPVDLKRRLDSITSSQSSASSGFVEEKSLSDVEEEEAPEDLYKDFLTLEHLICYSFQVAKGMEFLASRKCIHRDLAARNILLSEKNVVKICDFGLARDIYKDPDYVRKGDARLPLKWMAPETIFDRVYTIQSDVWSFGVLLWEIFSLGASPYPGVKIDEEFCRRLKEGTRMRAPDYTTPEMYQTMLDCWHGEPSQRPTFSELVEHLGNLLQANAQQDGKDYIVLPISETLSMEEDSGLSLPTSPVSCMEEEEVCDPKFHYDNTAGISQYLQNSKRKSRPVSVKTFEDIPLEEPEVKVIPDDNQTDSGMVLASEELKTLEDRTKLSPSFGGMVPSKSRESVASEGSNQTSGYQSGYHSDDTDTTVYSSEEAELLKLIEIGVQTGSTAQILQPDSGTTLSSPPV
Method: as §3

EGFR = biological target: T3, EGFR (Homo sapiens, UniProt P00533); assay: as above; format: biochemical; settings: triplicate
T3 construct: purchased
T3 sequence (P00533 25-1210): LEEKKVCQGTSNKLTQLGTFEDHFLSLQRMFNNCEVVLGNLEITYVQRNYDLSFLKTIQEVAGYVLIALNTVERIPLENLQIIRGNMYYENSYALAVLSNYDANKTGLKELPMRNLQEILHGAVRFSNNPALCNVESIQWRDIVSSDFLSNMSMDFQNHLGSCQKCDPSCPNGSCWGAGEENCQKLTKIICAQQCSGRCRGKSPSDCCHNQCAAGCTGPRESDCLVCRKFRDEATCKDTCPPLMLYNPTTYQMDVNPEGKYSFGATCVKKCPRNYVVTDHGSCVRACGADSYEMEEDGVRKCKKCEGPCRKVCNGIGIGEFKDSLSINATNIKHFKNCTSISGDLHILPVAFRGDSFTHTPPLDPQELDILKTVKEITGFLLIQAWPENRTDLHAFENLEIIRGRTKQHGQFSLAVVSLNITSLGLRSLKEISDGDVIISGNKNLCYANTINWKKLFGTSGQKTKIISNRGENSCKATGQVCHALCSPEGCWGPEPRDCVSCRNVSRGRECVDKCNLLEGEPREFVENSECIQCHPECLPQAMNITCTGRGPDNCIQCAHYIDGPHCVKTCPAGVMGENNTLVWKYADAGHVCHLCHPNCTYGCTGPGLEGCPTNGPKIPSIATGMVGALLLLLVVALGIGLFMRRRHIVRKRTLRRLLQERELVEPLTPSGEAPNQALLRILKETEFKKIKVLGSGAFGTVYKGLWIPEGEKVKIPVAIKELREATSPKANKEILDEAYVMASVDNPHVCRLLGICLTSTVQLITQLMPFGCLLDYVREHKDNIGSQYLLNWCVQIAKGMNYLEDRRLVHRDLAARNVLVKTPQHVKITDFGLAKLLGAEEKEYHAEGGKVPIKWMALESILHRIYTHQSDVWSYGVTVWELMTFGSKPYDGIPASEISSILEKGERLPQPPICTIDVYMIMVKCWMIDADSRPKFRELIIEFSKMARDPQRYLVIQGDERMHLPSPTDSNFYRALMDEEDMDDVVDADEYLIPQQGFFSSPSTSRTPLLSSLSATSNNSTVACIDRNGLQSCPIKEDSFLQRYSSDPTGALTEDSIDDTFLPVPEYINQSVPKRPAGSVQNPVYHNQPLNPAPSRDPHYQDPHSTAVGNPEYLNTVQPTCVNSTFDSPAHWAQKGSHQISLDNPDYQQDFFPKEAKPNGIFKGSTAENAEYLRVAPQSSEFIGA
Method: as §3

Her2 = biological target: T4, Her2 (Homo sapiens, UniProt P04626); assay: as above; format: biochemical; settings: triplicate
T4 construct: purchased
T4 sequence (P04626 23-1255): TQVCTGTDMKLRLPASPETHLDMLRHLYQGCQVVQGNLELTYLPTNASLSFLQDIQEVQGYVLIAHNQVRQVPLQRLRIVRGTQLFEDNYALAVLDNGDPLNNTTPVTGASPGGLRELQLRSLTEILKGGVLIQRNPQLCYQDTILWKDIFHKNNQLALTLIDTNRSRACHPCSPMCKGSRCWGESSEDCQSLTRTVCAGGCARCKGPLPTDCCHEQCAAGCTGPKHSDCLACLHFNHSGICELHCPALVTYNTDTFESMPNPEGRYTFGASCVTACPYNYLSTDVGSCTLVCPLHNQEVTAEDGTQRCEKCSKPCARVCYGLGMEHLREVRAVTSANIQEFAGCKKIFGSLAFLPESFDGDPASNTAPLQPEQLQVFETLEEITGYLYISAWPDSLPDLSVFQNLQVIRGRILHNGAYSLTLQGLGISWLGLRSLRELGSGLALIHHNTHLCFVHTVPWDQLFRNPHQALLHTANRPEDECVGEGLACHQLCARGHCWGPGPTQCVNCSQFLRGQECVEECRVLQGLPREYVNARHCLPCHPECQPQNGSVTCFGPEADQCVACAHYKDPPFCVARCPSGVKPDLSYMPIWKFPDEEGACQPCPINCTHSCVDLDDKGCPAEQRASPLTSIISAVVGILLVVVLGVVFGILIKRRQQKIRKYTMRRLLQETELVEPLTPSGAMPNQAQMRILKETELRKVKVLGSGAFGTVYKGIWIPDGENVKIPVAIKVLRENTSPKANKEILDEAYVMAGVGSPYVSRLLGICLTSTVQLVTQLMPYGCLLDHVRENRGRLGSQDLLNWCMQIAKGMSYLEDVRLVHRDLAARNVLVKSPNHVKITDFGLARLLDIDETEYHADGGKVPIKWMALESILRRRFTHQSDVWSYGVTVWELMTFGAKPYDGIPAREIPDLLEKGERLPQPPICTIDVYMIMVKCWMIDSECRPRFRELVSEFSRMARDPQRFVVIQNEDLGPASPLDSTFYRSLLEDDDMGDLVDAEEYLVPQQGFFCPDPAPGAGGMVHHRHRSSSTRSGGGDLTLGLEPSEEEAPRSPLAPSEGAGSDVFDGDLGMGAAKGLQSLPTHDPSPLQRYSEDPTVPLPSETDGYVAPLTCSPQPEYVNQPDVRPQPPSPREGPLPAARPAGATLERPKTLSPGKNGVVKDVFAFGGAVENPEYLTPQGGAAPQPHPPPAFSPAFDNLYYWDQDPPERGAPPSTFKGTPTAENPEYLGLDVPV
Method: as §3

[5] = tested on: four different cancer cell lines (MCF-7, HepG2, MDA-MB-231, HeLa); assay: MTT cytotoxicity assay, range over the four cell lines; format: cell-based; settings: read-out: IC50 values, range over the tested cancer cell lines
Method: as §1, §2

Bcl-2 = assay: Apoptotic protein levels assay (ELISA) in HepG2 cells; format: cell-based; settings: 24 h, ELISA, control 11.7 ± 0.36
Description: (§4) To validate the mechanism of cell death and the induction of apoptosis caused by compound 5k, the expression levels of some apoptotic proteins were investigated. […] Specifically, the levels of caspase-3 (6.9 folds higher than the control) and Bax (2.6 folds higher than the control) were higher in the group treated with 5k compared to the control group. Caspase-3 is a key enzyme involved in the execution of apoptosis, while Bax is a pro-apoptotic protein that promotes cell death. […] Bcl-2 is a protein that inhibits apoptosis, so the lower levels of Bcl-2 in the 5k treated group further support the notion that treatment with 5k may induce apoptosis in HepG2 cells. […] These findings may have implications for the development of novel therapies for diseases involving abnormal cell death, including cancer. Further studies are warranted in order to elucidate the underlying mechanisms of action of compound 5k and to assess its potential therapeutic applications.
(§5) The ELISA technique was employed to assess the impact of compound 5k on the alteration of protein levels associated with caspase-3, BAX, and Bcl-2. Specifically, the following ELISA kits were utilized: KHO1091 (InvitrogenTM, Grand Island, NY, USA) for caspase-3, EIA-4860 and EIA-4487 for BAX, (DRU International INC., Mountainside, NJ, USA), and 99-0042 (InvitrogenTM, Grand Island, NY, USA) for Bcl-2 for the respective measurements. The experimental procedures were conducted according to the instructions provided by the manufacturers and our recently published article. Initially, HepG2 cells were cultured in triplicate in 96-well plates. Following a 24-h incubation period, the cells were subjected to various concentrations of compound 5k, while a control group was treated with 0.1% DMSO (V/V). After an additional 24-h incubation, the absorbance levels were assessed using a BioTek Synergy H1 Multi-mode Reader (Agilent Technologies, Santa Clara, CA, USA) at wavelengths ranging from 450 to 650 nm.

Bax = assay: as above; format: cell-based; settings: 24 h, ELISA, control 67.09 ± 4.94
Description: as §4, §5

caspase-3 = assay: as above; format: cell-based; settings: 24 h, ELISA, control 66.28 ± 4.66
Description: as §4, §5

Structure (SMILES) | IC50 [1] [µM] | IC50 [2] [µM] | IC50 [3] [µM] | melting point [°C] | IC50 [4] [µM] | IC50 (CDK2) [nM] | IC50 (VEGFR2) [nM] | IC50 (EGFR) [nM] | IC50 (Her2) [nM] | IC50 [5] [µM] | Protein Expression (Pg/mL) Bcl-2 (Bcl-2) [pg/mL] | Protein Expression (Pg/mL) Bax (Bax) [pg/mL] | Protein Expression (Pg/mL) Caspase-3 (caspase-3) [pg/mL]
O=C(N/N=C/c1cccc(C(F)(F)F)c1)c1ccc(Nc2ncnc3[nH]ccc23)cc1 [Compound 5m, (E)-4-((7H-Pyrrolo[2,3-d]pyrimidin-4-yl)amino)-N’-(3-(trifluoromethyl)benzylidene)benzohydrazide] | 53.7 ± 3 | 39.8 ± 2.7 | 61.9 ± 3.3 | 280 | 64.5 ± 3.4 |  |  |  |  |  |  |  | 
O=C(N/N=C/c1ccccc1Cl)c1ccc(Nc2ncnc3[nH]ccc23)cc1 [Compound 5e, (E)-4-((7H-Pyrrolo[2,3-d]pyrimidin-4-yl)amino)-N’-(2-chlorobenzylidene)benzohydrazide] | 48.1 ± 2.6 | 29.1 ± 2.5 | 55.3 ± 3.1 |  | 53 ± 2.9 | 2120 | 593 | 1140 | 335 | 29 to 59 |  |  | 
O=C(N/N=C/c1ccc(Cl)cc1)c1ccc(Nc2ncnc3[nH]ccc23)cc1 [Compound 5g, (E)-4-((7H-Pyrrolo[2,3-d]pyrimidin-4-yl)amino)-N’-(4-chlorobenzylidene)benzohydrazide] | 67.6 ± 3.7 | 51.9 ± 3 | 73.3 ± 3.9 | 314 | 79.7 ± 3.9 |  |  |  |  |  |  |  | 
O=C(N/N=C/c1ccccc1Br)c1ccc(Nc2ncnc3[nH]ccc23)cc1 [Compound 5b, (E)-4-((7H-Pyrrolo[2,3-d]pyrimidin-4-yl)amino)-N’-(2-bromobenzylidene)benzohydrazide] | 79.2 ± 4.1 | 53.2 ± 3.1 | 83.9 ± 4.3 | 294 | 90.6 ± 4.7 |  |  |  |  |  |  |  | 
O=C(N/N=C/c1cc(Br)ccc1O)c1ccc(Nc2ncnc3[nH]ccc23)cc1 [Compound 5l, (E)-4-((7H-Pyrrolo[2,3-d]pyrimidin-4-yl)amino)-N’-(5-bromo-2-hydroxybenzylidene)benzohydrazide] | 41.3 ± 2.4 | 36.3 ± 2.6 | 47.1 ± 2.5 |  | 46.1 ± 2.4 | 599 | 1200 | 406 | 193 | 29 to 59 |  |  | 
O=C(N/N=C/c1ccccc1F)c1ccc(Nc2ncnc3[nH]ccc23)cc1 [Compound 5h, (E)-4-((7H-Pyrrolo[2,3-d]pyrimidin-4-yl)amino)-N’-(2-fluorobenzylidene)benzohydrazide] | 45.2 ± 2.5 | 33.2 ± 2.4 | 52.4 ± 2.9 |  | 49.9 ± 2.8 | 1020 | 1040 | 636 | 206 | 29 to 59 |  |  | 
O=C(N/N=C/c1ccc(Br)cc1)c1ccc(Nc2ncnc3[nH]ccc23)cc1 [Compound 5d, (E)-4-((7H-Pyrrolo[2,3-d]pyrimidin-4-yl)amino)-N’-(4-bromobenzylidene)benzohydrazide] | 81.5 ± 4 | 62.4 ± 3.5 | 88.2 ± 4.5 | 321 | 95.8 ± 5.1 |  |  |  |  |  |  |  | 
O=C(N/N=C/c1cccc(F)c1)c1ccc(Nc2ncnc3[nH]ccc23)cc1 [Compound 5i, (E)-4-((7H-Pyrrolo[2,3-d]pyrimidin-4-yl)amino)-N’-(3-fluorobenzylidene)benzohydrazide] | 63.8 ± 3.5 | 45 ± 2.8 | 69.9 ± 3.8 | 295 | 76.1 ± 3.7 |  |  |  |  |  |  |  | 
CN[C@@H]1C[C@H]2O[C@@](C)([C@@H]1OC)n1c3ccccc3c3c4c(c5c6ccccc6n2c5c31)C(=O)NC4 [Staurosporine, reference compound] |  |  |  |  |  |  |  |  |  |  | 4.404 ± 0.09 | 276.9 ± 2.26 | 684.6 ± 13.4
O=C(N/N=C/c1cccc(Br)c1)c1ccc(Nc2ncnc3[nH]ccc23)cc1 [Compound 5c, (E)-4-((7H-Pyrrolo[2,3-d]pyrimidin-4-yl)amino)-N’-(3-bromobenzylidene)benzohydrazide] | 75.8 ± 3.9 | 48.5 ± 2.9 | 80.7 ± 4 | 296 | 85.5 ± 4.1 |  |  |  |  |  |  |  | 
CCN(CC)CCNC(=O)c1c(C)[nH]c(/C=C2\C(=O)Nc3ccc(F)cc32)c1C [Sunitinib, reference compound] |  |  |  |  | 21.8 ± 1.7 |  |  |  |  |  |  |  | 
O=C(N/N=C/c1ccccc1)c1ccc(Nc2ncnc3[nH]ccc23)cc1 [Compound 5a, (E)-4-((7H-Pyrrolo[2,3-d]pyrimidin-4-yl)amino)-N’-benzylidenebenzohydrazide] | 56.2 ± 3.2 | 43.1 ± 2.7 | 64.9 ± 3.6 | 294 | 68.2 ± 3.3 |  |  |  |  | 43.1 to 68.2 |  |  | 
O=C(N/N=C/c1ccc(F)cc1)c1ccc(Nc2ncnc3[nH]ccc23)cc1 [Compound 5j, (E)-4-((7H-Pyrrolo[2,3-d]pyrimidin-4-yl)amino)-N’-(4-fluorobenzylidene)benzohydrazide] | 58.5 ± 3.3 | 42.6 ± 2.8 | 66.4 ± 3.6 | 309 | 71.7 ± 3.5 |  |  |  |  |  |  |  | 
O=C(N/N=C/c1cccc(Cl)c1)c1ccc(Nc2ncnc3[nH]ccc23)cc1 [Compound 5f, (E)-4-((7H-Pyrrolo[2,3-d]pyrimidin-4-yl)amino)-N’-(3-chlorobenzylidene)benzohydrazide] | 86.6 ± 4.6 | 74.6 ± 3.9 | 94.7 ± 4.9 | 281 | > 100 |  |  |  |  |  |  |  | 
